Assay results published in US20150218534A1, “MODIFIED DNA POLYMERASE” (TOYOBO CO., LTD., priority 2012, published 2015).

B1: Pfu Y7A/V93K: modified Pfu DNA polymerase with Y7A and V93K (protein, UniProt P61875 1-775, looked up, variant Y7A V93K)
DNA polymerase: MILDVDAITEEGKPVIRLFKKENGKFKIEHDRTFRPYIYALLRDDSKIEEVKKITGERHGKIVRIVDVEKVEKKFLGKPITVWKLYLEHPQDKPTIREKVREHPAVVDIFEYDIPFAKRYLIDKGLIPMEGEEELKILAFDIETLYHEGEEFGKGPIIMISYADENEAKVITWKNIDLPYVEVVSSEREMIKRFLRIIREKDPDIIVTYNGDSFDFPYLAKRAEKLGIKLTIGRDGSEPKMQRIGDMTAVEVKGRIHFDLYHVITRTINLPTYTLEAVYEAIFGKPKEKVYADEIAKAWESGENLERVAKYSMEDAKATYELGKEFLPMEIQLSRLVGQPLWDVSRSSTGNLVEWFLLRKAYERNEVAPNKPSEEEYQRRLRESYTGGFVKEPEKGLWENIVYLDFRALYPSIIITHNVSPDTLNLEGCKNYDIAPQVGHKFCKDIPGFIPSLLGHLLEERQKIKTKMKETQDPIEKILLDYRQKAIKLLANSFYGYYGYAKARWYCKECAESVTAWGRKYIELVWKELEEKFGFKVLYIDTDGLYATIPGGESEEIKKKALEFVKYINSKLPGLLELEYEGFYKRGFFVTKKRYAVIDEEGKVITRGLEIVRRDWSEIAKETQARVLETILKHGDVEEAVRIVKEVIQKLANYEIPPEKLAIYEQITRPLHEYKAIGPHVAVAKKLAAKGVKIKPGMVIGYIVLRGDGPISNRAILAEEYDPKKHKYDAEYYIENQVLPAVLRILEGFGYRKEDLRYQKTRQVGLTSWLNIKKS

Legend:
Type in all cases: biochemical
[1] = tested on: 1.3 kbp, 2.8 kbp, and 3.6 kbp of human β-globin; assay: Amplification of long-chain DNA in PCR using dUTP; conditions: 1.3, 2.8, 3.6 kbp; 100% dUTP (FIGS. 9 and 10)
Method: Amplification of 1.3 kbp, 2.8 kbp, and 3.6 kbp of human β-globin in PCR using dUTP was compared. For amplification, each enzyme was used after being mixed with 1 μg of a KOD antibody per U of the enzyme. For PCR, components included in KOD-Plus-Ver. 2 (produced by Toyobo Co. Ltd.) were used. 50 μl of individual reaction solutions containing 1× PCR buffer, 1.5 mM MgSO4, dNTPs (dATP, dUTP, dCTP, dGTP) in an amount of 2 mM in which dTTP was replaced by dUTP, primers in an amount of 15 pmol (SEQ ID NOs: 25 and 26 for amplification of 1.3 kbp; SEQ ID NOs: 26 and 29 for amplification of 2.8 kbp; SEQ ID NOs: 30 and 31 for amplification of 3.6 kbp), 10 ng of human genomic DNA (produced by Roche), and 1 U of each respective enzyme mixed with the antibody were used. PCR was performed using a GeneAmp PCR system 9700 (Applied Biosystems) on the following schedule: preliminary reaction at 94° C. for 2 minutes, followed by 35 cycles, each cycle consisting of 98° C. for 10 seconds, 65° C. for 30 seconds, and 68° C. for about 1 minute per kbp (1 minute and 30 seconds for amplification of 1.3 kbp; 3 minutes for amplification of 2.8 kbp; 4 minutes for amplification of 3.6 kbp). As a control, amplification was also performed using Taq DNA polymerase. Taq DNA polymerase produced by Toyobo Co. Ltd. mixed with Anti-Taq High (produced by Toyobo Co. Ltd.) was used. 50 μl of a reaction solution containing 1× buffer included in Blend Taq, dNTPs (dATP, dUTP, dCTP, dGTP) in an amount of 2 mM in which dTTP was replaced by dUTP, primers in an amount of 10 pmol the same as the above), 10 ng of human genomic DNA (produced by Roche), and 2.5 U of the enzyme mixed with the antibody was used. PCR was performed using a GeneAmp PCR system 9700 (produced by Applied Biosystems) on the following schedule: preliminary reaction at 94° C. for 2 minutes, followed by 35 cycles, each cycle consisting of 94° C. for 30 seconds, 65° C. for 30 seconds, and 68° C. for about 1 minute per kbp (1 minute and 30 seconds for amplification of 1.3 kbp; 3 minutes for amplification of 2.8 kbp; 4 minutes for amplification of 3.6 kbp). After the completion of each individual reaction, 5 μl of each of the resulting reaction solutions was subjected to agarose electrophoresis, followed by ethidium bromide staining, and the amount of amplified DNA fragments was confirmed under ultraviolet irradiation. FIGS. 9 and 10 show the results.

Psychrobacter DNA = assay: PCR amplification using inosine-containing primers
Method: (§1) Using inosine-containing primers, the difference in PCR amplification was compared. For comparison, KOD mutants and KOD (wild-type), each mixed with 1 μg of a KOD antibody per U of the enzyme, and Taq DNA polymerase mixed with an antibody (a mixture of equal amounts of Taq DNA polymerase (produced by Toyobo Co. Ltd.) and Anti-Taq High (produced by Toyobo Co. Ltd.)) were used.
For PCR with the KOD mutants and PCR with the KOD, a buffer, MgSO4, and dNTPs included in KOD-Plus-Ver. 2 (produced by Toyobo Co. Ltd.) were used. 50 μl of individual reaction solutions containing 1× PCR buffer, 1.5 mM MgSO4, dNTPs (dATP, dTTP, dCTP, dGTP) in an amount of 0.2 mM, primers (SEQ ID NOs: 40 and 41) in an amount of 75 pmol or 150 pmol, 100 ng of Psychrobacter DNA, and 1 U of each respective enzyme mixed with the antibody were used. PCR was performed using a GeneAmp PCR system 9700 (Applied Biosystems) on the following schedule: preliminary reaction at 94° C. for 2 minutes, followed by 35 cycles, each cycle consisting of 98° C. for 10 seconds, 54° C. for 10 seconds, and 68° C. for 1 minute.
For PCR with the Taq DNA polymerase, 50 μl of a reaction solution containing 1× buffer included in Blend Taq (product of Toyobo), dNTPs (dATP, […], dCTP, dGTP) in an amount of 0.2 mM, primers in an amount of 75 pmol or 150 pmol (the same as above), 100 ng of Psychrobacter DNA, and 2.5 U of the enzyme mixed with the antibody was used. PCR was performed using a GeneAmp PCR system 9700 (Applied Biosystems) on the following schedule: preliminary reaction at 94° C. for 2 minutes, followed by 35 cycles, each cycle consisting of 94° C. for 30 seconds, 54° C. for 30 seconds, and 68° C. for 1 minute.
(§2) After the completion of each individual reaction, each of the resulting reaction solutions was analyzed using a DNA-1000 kit for MultiNA (produced by Shimadzu Corporation) to confirm amplified DNA fragments.

[2] = tested on: bisulfite-treated human genomic DNA (MINT1, RAR, THBS1, MINT31); assay: PCR amplification of bisulfite-treated DNA; conditions: 40 cycles (FIG. 12)
Method: as §1, with “bisulfite-treated DNA as a template and various” for “inosine-containing”, “mutant (Y7A/V93K)” for “mutants”
The bisulfite-treated DNA used was human genomic DNA (produced by Roche) that had been treated with a MethylCode Bisulfite Conversion Kit of Invitrogen.
For PCR with the KOD mutant (Y7A/V93K) and PCR with the KOD, a buffer, MgSO4, and dNTPs included in KOD-Plus-Ver. 2 (produced by Toyobo Co. Ltd.) were used. 50 μl of individual reaction solutions containing 1× PCR buffer, 1.5 mM MgSO4, dNTPs (dATP, dTTP, dCTP, dGTP) in an amount of 0.2 mM, primers (SEQ ID NOs: 42 and 43 for amplification of MINT1; SEQ ID NOs: 44 and 45for amplification of RAR; SEQ ID NOs: 46 and 47 for amplification of THBS1; SEQ ID NOs: 48 and 49 for amplification of MINT31) in an amount of 15 pmol, 1 μl of bisulfite-treated DNA extract, and 1 U of each respective enzyme mixed with the antibody were used. PCR was performed using a GeneAmp PCR system 9700 (Applied Biosystems) on the following schedule: preliminary reaction at 94° C. for 2 minutes, followed by 40 cycles, each cycle consisting of 98° C. for 10 seconds, 55° C. for 15 seconds, and 68° C. for 1 minute.
For PCR with the Taq DNA polymerase, 50 μl of a reaction solution containing 1× buffer included in Blend Taq (product of Toyobo), dNTPs (dATP, […], dCTP, dGTP) in an amount of 0.2 mM, primers in an amount of 15 pmol (the same as above), 1 μl of bisulfite-treated DNA extract, and 2.5 U of the enzyme mixed with the antibody was used. […]
as §2

[3] = tested on: 0.7 kbp of human β-globin amplified in PCR with dUTP; assay: Degradation with UNG of DNA amplified in the presence of dUTP; conditions: 37° C. for 10 minutes (FIG. 13)
Method: It was confirmed whether 0.7 kbp of human β-globin amplified using KOD mutant with reduced uracil sensitivity (N210D/Y7A/P36H) in PCR with dUTP was degraded by being reacted with UNG. For PCR, components included in KOD-Plus-Ver. 2 (produced by Toyobo Co. Ltd.) were used. 50 μl of a reaction solution containing 1× PCR buffer, 1.5 mM MgSO4, dNTPs (dATP, dUTP, dCTP, dGTP) in an amount of 2 mM in which dTTP was replaced by dUTP, primers (SEQ ID NOs: 50 and 51) in an amount of 15 pmol, 10 ng of human genomic DNA (produced by Roche), and 1 U of the enzyme mixed with an antibody was used. PCR was performed using a GeneAmp PCR system 9700 (Applied Biosystems) on the following schedule: preliminary reaction at 94° C. for 2 minutes, followed by 35 cycles, each cycle consisting of 98° C. for 10 seconds, 60° C. for 30 seconds, and 68° C. for 1 minute. The amplification products were diluted with the above-mentioned 1× PCR buffer to 10 ng/μl, 8 μl of the diluted amplification products was mixed with 2 μl of various concentrations of UNG (produced by Roche), and the mixtures were reacted at 37° C. for 10 minutes. After the completion of each individual reaction, each of the mixtures was analyzed using a DNA-1000 kit for MultiNA (produced by Shimadzu Corporation) to confirm the amount of amplification products.

Molecule | amount of amplification of long-chain DNA with dUTP [1] | amount of inosine-containing primers at which amplification was observed (Psychrobacter DNA; 75 pmol or 150 pmol tested) | amplification with inosine-containing primers (Psychrobacter DNA; primers 75 pmol or 150 pmol, 35 cycles (FIG. 11)) | amplification of bisulfite-treated DNA [2] | degradation with UNG of DNA amplified with the polymerase in the presence of dUTP [3]
Taq DNA polymerase: Taq DNA polymerase produced by Toyobo Co. Ltd. mixed with Anti-Taq High, used as control [reference compound] | cannot be amplified | 150 pmol | stable amplification was confirmed | stable amplification was confirmed | 
B1 | provided larger amounts of amplification |  |  |  | the DNA was degraded with UNG
